# Assay results from patent US4871774A, “Medical treatment” (The Boots Company PLC, priority 1987, dated 1989).
# Several values for one entry are separate records, joined by “and”; a condition that tells them apart may be missing. Equal values may be shown once.
# Key:
# [1] = test system: uptake of radiolabelled dopamine into rat striatal synaptosomes; experiment: Inhibition of dopamine uptake in vitro by plasma from drug treated rats (3H-dopamine, rat striatal synaptosomes); format: biochemical, rat (CD, Sprague-Dawley); conditions: for % Inhibition of dopamine uptake in Individual Rats: hydrochloride monohydrate; for % Inhibition of dopamine uptake, Mean (±SEM): mean of 4 rats
# Procedure: (3) Inhibition of dopamine uptake in vitro by plasma from drug treated rats
# To obtain the synaptosomes, untreated male CD rats (Sprague-Dawley 200-250 g; Charles River) were killed by cervical dislocation, the brains removed and the striata of two or three rats dissected out and placed in ice-cold saline. The pooled tissue was homogenised in 20 volumes of ice-cold 0.32M sucrose in a glass-teflon homogeniser with 0.35 mm clearance. The homogenate was spun at 1500×g for 10 minutes in a refrigerated (4° C.) Heraeus Christ minicentrifuge. The supernatant was transferred into a polypropylene sterilin tube and stored on ice for as short a time as possible prior to use in the radiolabelled dopamine uptake assay.
# Control rats were orally administered distilled water. After one hour the rats were killed by CO2 inhalation overdose, the chest cavity opened and blood immediately removed from the heart and mixed with an anticoagulant solution.
# The rat blood/anticoagulant mixture was spun at 5750×g for 20 minutes in a Heraeus Christ minicentrifuge at room temperature. The plasma was removed and kept at room temperature for as short a time as possible before analysis in the radiolabelled dopamine uptake assay. The fresh plasma samples from the rat study were initially maintained at 37° C. for 10-15 minutes before starting the assay. 300 μl of each plasma sample was added to six 5 ml polypropylene tubes already containing 50 μl of saline at room temperature. Four of these tubes were incubated at 37° C. to assess active radiolabelled dopamine uptake. The other two tubes were immediately cooled to c.3° C. and maintained at this temperature to account for passive radiolabelled dopamine uptake.
# (a) Active uptake of radiolabelled dopamine
# To each tube at 37° C. was added 100 μl of fresh striatal synaptosomes, prepared as above. These tubes were then agitated in the water bath at 37° C. for 5 minutes prior to the addition of 50 μl ice-cold ^3 H-dopamine solution (final concentration 1×10^-7 M) (Amersham International). The reaction was stopped after a further 5 minutes of agitation and incubation at 37° C. by removing the tubes from the water bath and immediately adding 4 ml of ice-cold saline. The contents of the tube were then rapidly filtered over Whatman glass fibre (GF/F) filters supported on a Millipore 1225 manifold linked to an Edwards 2-stage vacuum pump. The tubes were rinsed with 2×4 ml of ice-cold saline and this was also rapidly filtered. Finally, each manifold well was washed with 4 ml of ice-cold saline.
# (b) Passive uptake of radiolabelled dopamine
# To the two tubes maintained at c.3° C. was added 100 μl of fresh striatal synaptosomes followed by 50 μl of ice-cold ^3 H-dopamine solution (final concentration 1×10^-7 M). The "reaction" in these tubes was terminated by the addition of 4 ml ice-cold saline and the samples were then rapidly filtered and washed as described in (a) above.
# All filters were placed into glass vials and 10 ml of Packard ES-299 scintillation fluid added. Filters were allowed to solubilise for at least 1 hour before the radioactivity accumulated was assayed by liquid scintillation counting.
# (c) Calculation of percentage inhibition of ^3 H-dopamine uptake
# The amount of passive uptake of ^3 H-dopamine at c.3° C. (measured in cpm) was subtracted from the amount of active ^3 H-dopamine uptake at 37° C. (measured in cpm) to derive net ^3 H-dopamine uptake. The resulting value was then expressed as a percentage (X) of the net ^3 H-dopamine uptake recorded for control plasma. The latter plasma samples were obtained from distilled water-treated control rats. The percentage inhibition value (X) was calculated using the following formula: [formula]
# Mean [±1 standard error of the mean (SEM)] percentage inhibition was then determined for each dose.
# [2] = test system: dopamine reuptake; unilateral nigrostriatal lesioned rats; experiment: Ipsilateral circling behaviour of unilateral nigrostriatal (6-OHDA) lesioned rats; format: in vivo, rat (CD); conditions: 30 mg/kg oral
# Text: The two tracts of the nigrostriatal dopamine system are independent and are located on either side of the midline of the brain. When one tract is destroyed using the specific neurotoxin, 6-hydroxydopamine (6-OHDA), rats will display characteristic circling behaviour after injection of dopaminergic drugs. The direction of rotation, however, is dependent on the stimulus employed. Drugs which inhibit dopamine reuptake can only function on the unlesioned side of the brain and induce circling towards the lesion site (known as ipsilateral circling.)
# Male CD rats (250-300 g: Charles River) were anaesthetised with `Equithesin` type anaesthetic (3.2 ml/kg i.p.) and secured in a stereotaxic frame (David Kopf Small Animal Stereotaxic Instrument DKI 900). After shaving the area, a saggital incision of 1.5-2 cm was made and skin flaps dissected from the skull. A small hole was made in the skull, using a No. 6 dental burr, to allow the tip of a 30 s.w.g. stainless steel cannula to be inserted to the left substantia nigra. This was located by using the following co-ordinates, using skull landmark bregma as the zero reference point; rostral-caudal -2.8; medial-lateral +2.0; dorsal-ventral -8.0 from the surface of the dura, all co-ordinates measured in millimetres. This system of co-ordinates is a modification of the de Groot system as described by Pellegrino et al (A stereotaxic atlas of the rat brain, 2nd Edition, Plenum Press 1979). 6-Hydroxydopamine HBr (2 μg/μl, as base: Sigma Chemical Co.) was injected into the left substantia nigra at 1 μl/min; a total of 8 μg was administered over a period of 4 minutes using an infusion pump (Braun `Perfusor` ED2). After removal of the cannula, the skin flaps were joined with a single everted suture and the animal allowed to recover.
# After 21 days, the circling behaviour of the rats was examined. They were placed, individually, in circular plastic arenas (30 cm diameter×12 cm high) for 1 hour, with no access to food or water during this period. […] One `turn` consisted of rotation through 360° in either direction. As rats were always lesioned on the left side of the brain, anticlockwise turns were ipsilateral.
# Control values were determined for all rats by observing their spontaneous circling behaviour in the arenas without prior dosing. The mean turns per minute was always less than 1.
# The rats were challenged with an intraperitoneal dose of methamphetamine (2 mg/kg) and immediately placed in the arenas. In these experiments circling behaviour was monitored during two periods, 0-1 h and 4-5 h after dosing. Rats giving a mean of more than 5 ipsilateral turns per minute during the first hour in response to methamphetamine were used in subsequent tests. Following selection, the rats were used in groups of 5 or more rats to test the drug under investigation.
# [3] = plasma 1 h after 100 mg/kg oral
smiles,measurement,setting,value
"CC(C)CC(N(C)C)C1(c2ccc(Cl)cc2)CCC1.Cl.O (stereo not shown) [N,N-dimethyl-1-[1-(4-chlorophenyl)cyclobutyl]-3-methylbutylamine hydrochloride monohydrate]",% Inhibition of dopamine uptake in Individual Rats,[1]; plasma 1 h after 10 mg/kg oral,33% and 23% and 13% and 17%
same,"% Inhibition of dopamine uptake, Mean (±SEM)",[1]; plasma 1 h after 10 mg/kg oral,22.8 ± 5.5%
same,% Inhibition of dopamine uptake in Individual Rats,[1]; plasma 1 h after 30 mg/kg oral,54% and 35% and 49% and 42%
same,"% Inhibition of dopamine uptake, Mean (±SEM)",[1]; plasma 1 h after 30 mg/kg oral,45.0 ± 4.1%
same,% Inhibition of dopamine uptake in Individual Rats,[1]; [3],53% and 59% and 67% and 55%
same,"% Inhibition of dopamine uptake, Mean (±SEM)",[1]; [3],58.5 ± 3.1%
same,inhibition of radiolabelled dopamine uptake (in words),"[1]; plasma from rats, 10, 30 or 100 mg/kg oral",dose-dependent inhibition of radiolabelled dopamine uptake
same,duration of action as an inhibitor of dopamine reuptake (in words),[2],long lasting action as an inhibitor of dopamine reuptake
same,ipsilateral turns/min (Mean ± SEM),[2]; 0-1 hrs after dosing,3.0 ± 0.6 turns/min
same,ipsilateral turns/min (Mean ± SEM),[2]; 4-5 hrs after dosing,6.7 ± 1.4 turns/min
same,ipsilateral turns/min (Mean ± SEM),[2]; 8-9 hrs after dosing,8.6 ± 1.8 turns/min
same,ipsilateral turns/min (Mean ± SEM),[2]; 24-25 hrs after dosing,6.2 ± 1.7 turns/min
same,ipsilateral turns/min (Mean ± SEM),[2]; 48-49 hrs after dosing,1.7 ± 0.5 turns/min
